These results are taken from ChEMBL document CHEMBL1201862, “PubChem BioAssay data set” (2004).

Common to all, as to assay: NCI-60 cell line screen, 48 h
In assay [1] the test system is SW-620.
Assay [2] deals with HCT-15.
The subject of assay [3] is NCI-H226.
Assay [4] concerns SNB-75.
In assay [5] the test system is NCI/ADR-RES.
Assay [6] relates to SK-MEL-28.
The test system of assay [7] is MDA-MB-435.
Assay [8] concerns Malme-3M.
Assay [9] has as its system UACC-257.
In assay [10] the test system is OVCAR-4.
Assay [11] relates to SN12C.
The test system of assay [12] is U-251.
The subject of assay [13] is OVCAR-5.
Assay [14] has as its system MDA-N.
In assay [15] the test system is RXF 393.
Assay [16] has as its system SF-268.
The test system of assay [17] is SNB-19.
Assay [18] deals with UACC-62.
Assay [19] concerns A549.

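Tested at 5 concentrations; 48 h exposure; 96-well plates; endpoints linearly interpolated, else capped at highest concentration. GI50 is the concentration that inhibits growth by half.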 Calls of active or inactive are those of the source. Rule as the data show it: active = GI50 up to about 1.1 µM and inactive = higher. Where only a bound is given, the exact number is not on record here.

As to `COc1ccc(/N=N/c2ccc3oc(=O)c(C(=O)Nc4ccc(Cl)cc4)cc3c2)cc1`, the GI50 in assay [1] was 6.97 µM (inactive); in [2], 0.67 µM; in assay [3] it was > 10 µM (inactive); in [4], > 10 µM (inactive); in [5], 5.5 µM (inactive); in [6] it was > 10 µM (inactive). The GI50 in [7] was > 10 µM (inactive); in assay [8] it was > 10 µM (inactive); in assay [9], > 10 µM (inactive); in [10] it was > 10 µM (inactive); in assay [11] it was > 10 µM (inactive); in [12] it was 5.4 µM (inactive). Further, the GI50 in [13] was > 10 µM (inactive); in [14], > 10 µM (inactive); in [15] it was > 10 µM (inactive); in [16] it was 3.72 µM (inactive).

Turning to `O=C1C=C(Nc2ccc(Br)cc2)c2ccccc2/C1=N/O`, the GI50 in [1] was 4.32 µM (inactive); in [17], 2.5 µM (inactive); in [2], 3.14 µM; in assay [3], 2.32 µM (inactive); in [4], 2.75 µM (inactive); in [5], 8.67 µM (inactive). The GI50 in assay [6] is 2 µM (inactive); in [7], 1.83 µM (inactive); in [8], 10.2 µM (inactive); in assay [9], 1.58 µM (inactive); in assay [10], 6.84 µM (inactive); in assay [11], 10.6 µM (inactive). For the same compound, the GI50 in assay [12] was 4.93 µM (inactive); in assay [18], 1.73 µM (inactive); in [13] it was 5.18 µM (inactive); in assay [14] it was 1.89 µM (inactive); in assay [19], 1.98 µM (inactive); in [15] it was 16.4 µM (inactive). Further, the GI50 in assay [16] was 5.6 µM (inactive).

Regarding `C#CCn1c(=O)c2cc(OC)c(OC)cc2n(CC#C)c1=O`, the GI50 is > 10 µM (inactive) in [1]; > 10 µM (inactive) in assay [17]; > 10 µM in assay [2]; > 10 µM (inactive) in assay [3]; > 10 µM (inactive) in [4]; > 10 µM (inactive) in assay [5]. The GI50 in assay [6], in assay [7], in [8], in [9], in [10] and in assay [11] was > 10 µM (inactive) in each case. The GI50 in assay [12], in assay [13], in assay [14], in [19], in [15] and in assay [16] was > 10 µM (inactive) each time.

`COc1ccc(S(=O)(=O)O)cc1-n1nc(C(=O)Nc2ccccc2)n[n+]1-c1cc(S(=O)(=O)[O-])ccc1OC`: the GI50 in assay [1] is > 100 µM (inactive); in assay [17], > 100 µM (inactive); in [2] it was > 100 µM; in assay [3] it was > 100 µM (inactive); in assay [4], > 100 µM (inactive); in assay [5], > 100 µM (inactive). For the same compound, the GI50 in [6], in assay [7], in assay [8], in assay [10], in assay [11] and in [12] was > 100 µM (inactive) in each case. In addition, the GI50 in [18], in assay [13], in assay [14], in assay [19], in assay [15] and in [16] was > 100 µM (inactive) in each case.
